Like-named read-outs stand apart in the source and are kept apart here.
Target: T1, IRAK4 (Homo sapiens, UniProt Q9NWZ3)
T1 construct: Degradation of IRAK4 in OCI-LY10 was quantitatively measured using Meso Scale Discovery technology; endogenous in cells; host or cells: OCI-LY10
T1 sequence (Q9NWZ3 1-460): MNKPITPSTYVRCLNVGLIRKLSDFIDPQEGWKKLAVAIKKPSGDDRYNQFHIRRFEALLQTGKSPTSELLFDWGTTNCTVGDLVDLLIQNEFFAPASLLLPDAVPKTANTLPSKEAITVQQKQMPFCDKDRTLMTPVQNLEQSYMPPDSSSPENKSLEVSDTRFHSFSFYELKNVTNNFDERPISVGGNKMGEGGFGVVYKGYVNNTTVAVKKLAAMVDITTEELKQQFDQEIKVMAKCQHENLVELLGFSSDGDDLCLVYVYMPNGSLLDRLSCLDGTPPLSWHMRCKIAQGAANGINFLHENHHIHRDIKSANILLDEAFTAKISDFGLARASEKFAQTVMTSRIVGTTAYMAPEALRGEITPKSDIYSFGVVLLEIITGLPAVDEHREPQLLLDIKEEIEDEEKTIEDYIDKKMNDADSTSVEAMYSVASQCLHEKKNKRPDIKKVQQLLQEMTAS
Assay: IRAK4 MSD Degradation in OCI-LY10
Format: cell-based
Details: OCI-LY10 cells, MSD
Summary of the method: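 OCI-LY10 cells exposed to 8-point 1:3 compound series (top 1 to 10 μM) for 4 to 24 h at 37 °C, 5% CO2. Lysate IRAK4 quantified by MSD sandwich immunoassay. DC50 from three-parameter logistic fit, binned A (<0.01 μM) to D (>0.2 μM or not tested).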

[1] = 4 hrs incubation, read-out: IRAK4 degradation in OCI-LY10 at 4 hrs: DC50
[2] = 24 hrs incubation, read-out: IRAK4 degradation in OCI-LY10 at 24 hrs: DC50

Compound	DC50 [1]	DC50 [2]
Cc1cccc(C(=O)Nc2ccc3nn([C@H]4CC[C@H](CN5CC[C@@H](c6cccc7c6n(C)c(=O)n7C6CCC(=O)NC6=O)[C@@H](F)C5)CC4)cc3c2)n1 (stereo partly drawn) [I-620]	> 200 nM	> 200 nM
Cc1cccc(C(=O)Nc2ccc3nn([C@H]4CC[C@H](CN5CC[C@@H](c6cccc7c6n(C)c(=O)n7C6CCC(=O)NC6=O)[C@H](F)C5)CC4)cc3c2)n1 (stereo partly drawn) [I-621]	> 200 nM	> 200 nM
Cc1cccc(C(=O)Nc2ccc3nn([C@H]4CC[C@H](CN5CC[C@H](c6cccc7c6n(C)c(=O)n7C6CCC(=O)NC6=O)[C@@H](F)C5)CC4)cc3c2)n1 (stereo partly drawn) [I-622]	> 200 nM	> 200 nM
Cc1cccc(C(=O)Nc2ccc3nn([C@H]4CC[C@H](CN5CC[C@H](c6cccc7c6n(C)c(=O)n7C6CCC(=O)NC6=O)[C@H](F)C5)CC4)cc3c2)n1 (stereo partly drawn) [I-623]	> 200 nM	> 200 nM
Cn1c(=O)n(C2CCC(=O)NC2=O)c2cccc([C@@H]3CCN(C[C@H]4CC[C@H](n5cc6cc(NC(=O)c7cccc(C#N)n7)ccc6n5)CC4)C[C@@H]3F)c21 (stereo partly drawn) [I-624]	> 200 nM	> 200 nM
Cn1c(=O)n(C2CCC(=O)NC2=O)c2cccc([C@@H]3CCN(C[C@H]4CC[C@H](n5cc6cc(NC(=O)c7cccc(C#N)n7)ccc6n5)CC4)C[C@H]3F)c21 (stereo partly drawn) [I-625]	> 200 nM	< 10 nM
Cn1c(=O)n(C2CCC(=O)NC2=O)c2cccc([C@H]3CCN(C[C@H]4CC[C@H](n5cc6cc(NC(=O)c7cccc(C#N)n7)ccc6n5)CC4)C[C@@H]3F)c21 (stereo partly drawn) [I-626]	> 200 nM	> 200 nM
Cn1c(=O)n(C2CCC(=O)NC2=O)c2cccc([C@H]3CCN(C[C@H]4CC[C@H](n5cc6cc(NC(=O)c7cccc(C#N)n7)ccc6n5)CC4)C[C@H]3F)c21 (stereo partly drawn) [I-627]	> 200 nM	> 200 nM
Cn1c(=O)n(C2CCC(=O)NC2=O)c2cccc([C@@H]3CCN(C[C@H]4CC[C@H](n5cc6cc(NC(=O)c7cccc(C(F)F)n7)ccc6n5)CC4)C[C@@H]3F)c21 (stereo partly drawn) [I-628]	> 200 nM	> 200 nM
Cn1c(=O)n(C2CCC(=O)NC2=O)c2cccc([C@@H]3CCN(C[C@H]4CC[C@H](n5cc6cc(NC(=O)c7cccc(C(F)F)n7)ccc6n5)CC4)C[C@H]3F)c21 (stereo partly drawn) [I-629]	> 200 nM	< 10 nM
Cn1c(=O)n(C2CCC(=O)NC2=O)c2cccc([C@H]3CCN(C[C@H]4CC[C@H](n5cc6cc(NC(=O)c7cccc(C(F)F)n7)ccc6n5)CC4)C[C@@H]3F)c21 (stereo partly drawn) [I-630]	> 200 nM	> 200 nM
Cn1c(=O)n(C2CCC(=O)NC2=O)c2cccc([C@H]3CCN(C[C@H]4CC[C@H](n5cc6cc(NC(=O)c7cccc(C(F)F)n7)ccc6n5)CC4)C[C@H]3F)c21 (stereo partly drawn) [I-631]	> 200 nM	> 200 nM
Cc1cccc(C(=O)Nc2cc3cn([C@H]4CC[C@H](CN5CC[C@@H](c6cccc7c6n(C)c(=O)n7C6CCC(=O)NC6=O)[C@@H](F)C5)CC4)nc3cn2)n1 (stereo partly drawn) [I-632]	> 200 nM	> 200 nM
Cc1cccc(C(=O)Nc2cc3cn([C@H]4CC[C@H](CN5CC[C@@H](c6cccc7c6n(C)c(=O)n7C6CCC(=O)NC6=O)[C@H](F)C5)CC4)nc3cn2)n1 (stereo partly drawn) [I-633]	> 200 nM	< 10 nM
Cc1cccc(C(=O)Nc2cc3cn([C@H]4CC[C@H](CN5CC[C@H](c6cccc7c6n(C)c(=O)n7C6CCC(=O)NC6=O)[C@@H](F)C5)CC4)nc3cn2)n1 (stereo partly drawn) [I-634]	> 200 nM	> 200 nM
Cc1cccc(C(=O)Nc2cc3cn([C@H]4CC[C@H](CN5CC[C@H](c6cccc7c6n(C)c(=O)n7C6CCC(=O)NC6=O)[C@H](F)C5)CC4)nc3cn2)n1 (stereo partly drawn) [I-635]	> 200 nM	> 200 nM
Cn1c(=O)n(C2CCC(=O)NC2=O)c2cccc([C@@H]3CCN(C[C@H]4CC[C@H](n5cc6cc(NC(=O)c7cccc(C#N)n7)ncc6n5)CC4)C[C@@H]3F)c21 (stereo partly drawn) [I-636]	> 200 nM	> 200 nM
Cn1c(=O)n(C2CCC(=O)NC2=O)c2cccc([C@@H]3CCN(C[C@H]4CC[C@H](n5cc6cc(NC(=O)c7cccc(C#N)n7)ncc6n5)CC4)C[C@H]3F)c21 (stereo partly drawn) [I-637]	> 200 nM	< 10 nM
Cn1c(=O)n(C2CCC(=O)NC2=O)c2cccc([C@H]3CCN(C[C@H]4CC[C@H](n5cc6cc(NC(=O)c7cccc(C#N)n7)ncc6n5)CC4)C[C@@H]3F)c21 (stereo partly drawn) [I-638]	> 200 nM	< 10 nM
Cn1c(=O)n(C2CCC(=O)NC2=O)c2cccc([C@H]3CCN(C[C@H]4CC[C@H](n5cc6cc(NC(=O)c7cccc(C#N)n7)ncc6n5)CC4)C[C@H]3F)c21 (stereo partly drawn) [I-639]	> 200 nM	> 200 nM

Compound	DC50 [1]	DC50 [2]
Cn1c(=O)n(C2CCC(=O)NC2=O)c2cccc([C@@H]3CCN(C[C@H]4CC[C@H](n5cc6cc(NC(=O)c7cccc(C(F)F)n7)ncc6n5)CC4)C[C@@H]3F)c21 (stereo partly drawn) [I-640]	> 200 nM	> 200 nM
Cn1c(=O)n(C2CCC(=O)NC2=O)c2cccc([C@@H]3CCN(C[C@H]4CC[C@H](n5cc6cc(NC(=O)c7cccc(C(F)F)n7)ncc6n5)CC4)C[C@H]3F)c21 (stereo partly drawn) [I-641]	> 200 nM	< 10 nM
Cn1c(=O)n(C2CCC(=O)NC2=O)c2cccc([C@H]3CCN(C[C@H]4CC[C@H](n5cc6cc(NC(=O)c7cccc(C(F)F)n7)ncc6n5)CC4)C[C@@H]3F)c21 (stereo partly drawn) [I-642]	> 200 nM	> 200 nM
Cn1c(=O)n(C2CCC(=O)NC2=O)c2cccc([C@H]3CCN(C[C@H]4CC[C@H](n5cc6cc(NC(=O)c7cccc(C(F)F)n7)ncc6n5)CC4)C[C@H]3F)c21 (stereo partly drawn) [I-643]	> 200 nM	> 200 nM
Cc1cccc(C(=O)Nc2cc3cn([C@H]4CC[C@H](CN5CC[C@@H](c6cccc7c6n(C)c(=O)n7C6CCC(=O)NC6=O)[C@@H](F)C5)CC4)nc3cc2C(C)(C)O)n1 (stereo partly drawn) [I-644]	> 200 nM	> 200 nM
Cc1cccc(C(=O)Nc2cc3cn([C@H]4CC[C@H](CN5CC[C@@H](c6cccc7c6n(C)c(=O)n7C6CCC(=O)NC6=O)[C@H](F)C5)CC4)nc3cc2C(C)(C)O)n1 (stereo partly drawn) [I-645]	> 200 nM	< 10 nM
Cc1cccc(C(=O)Nc2cc3cn([C@H]4CC[C@H](CN5CC[C@H](c6cccc7c6n(C)c(=O)n7C6CCC(=O)NC6=O)[C@@H](F)C5)CC4)nc3cc2C(C)(C)O)n1 (stereo partly drawn) [I-646]	> 200 nM	> 200 nM
Cc1cccc(C(=O)Nc2cc3cn([C@H]4CC[C@H](CN5CC[C@H](c6cccc7c6n(C)c(=O)n7C6CCC(=O)NC6=O)[C@H](F)C5)CC4)nc3cc2C(C)(C)O)n1 (stereo partly drawn) [I-647]	> 200 nM	> 200 nM
Cn1c(=O)n(C2CCC(=O)NC2=O)c2cccc([C@@H]3CCN(C[C@H]4CC[C@H](n5cc6cc(NC(=O)c7cccc(C#N)n7)c(C(C)(C)O)cc6n5)CC4)C[C@@H]3F)c21 (stereo partly drawn) [I-648]	> 200 nM	> 200 nM
Cn1c(=O)n(C2CCC(=O)NC2=O)c2cccc([C@@H]3CCN(C[C@H]4CC[C@H](n5cc6cc(NC(=O)c7cccc(C#N)n7)c(C(C)(C)O)cc6n5)CC4)C[C@H]3F)c21 (stereo partly drawn) [I-649]	> 200 nM	< 10 nM
Cn1c(=O)n(C2CCC(=O)NC2=O)c2cccc([C@H]3CCN(C[C@H]4CC[C@H](n5cc6cc(NC(=O)c7cccc(C#N)n7)c(C(C)(C)O)cc6n5)CC4)C[C@@H]3F)c21 (stereo partly drawn) [I-650]	> 200 nM	> 200 nM
Cn1c(=O)n(C2CCC(=O)NC2=O)c2cccc([C@H]3CCN(C[C@H]4CC[C@H](n5cc6cc(NC(=O)c7cccc(C#N)n7)c(C(C)(C)O)cc6n5)CC4)C[C@H]3F)c21 (stereo partly drawn) [I-651]	> 200 nM	> 200 nM
Cn1c(=O)n(C2CCC(=O)NC2=O)c2cccc(C3CCN(C[C@H]4CC[C@H](n5cc6cc(NC(=O)c7cccc(C(F)F)n7)c(C(C)(C)O)cc6n5)CC4)C[C@@H]3F)c21 (stereo partly drawn) [I-652]	> 200 nM	> 200 nM
Cn1c(=O)n(C2CCC(=O)NC2=O)c2cccc([C@@H]3CCN(C[C@H]4CC[C@H](n5cc6cc(NC(=O)c7cccc(C(F)F)n7)c(C(C)(C)O)cc6n5)CC4)C[C@H]3F)c21 (stereo partly drawn) [I-653]	> 200 nM	< 10 nM
Cn1c(=O)n(C2CCC(=O)NC2=O)c2cccc([C@H]3CCN(C[C@H]4CC[C@H](n5cc6cc(NC(=O)c7cccc(C(F)F)n7)c(C(C)(C)O)cc6n5)CC4)C[C@@H]3F)c21 (stereo partly drawn) [I-654]	> 200 nM	> 200 nM
Cn1c(=O)n(C2CCC(=O)NC2=O)c2cccc([C@H]3CCN(C[C@H]4CC[C@H](n5cc6cc(NC(=O)c7cccc(C(F)F)n7)c(C(C)(C)O)cc6n5)CC4)C[C@H]3F)c21 (stereo partly drawn) [I-655]	> 200 nM	> 200 nM
Cn1c(=O)n(C2CCC(=O)NC2=O)c2cccc([C@H]3CCN(C[C@H]4CC[C@H](n5cc6cc(NC(=O)c7cccc(C(F)(F)F)n7)ncc6n5)CC4)C[C@@H]3F)c21 (stereo partly drawn) [I-657]	> 200 nM	> 200 nM
Cn1c(=O)n(C2CCC(=O)NC2=O)c2cccc(N3CCN(CC4COC5(C4)CN(C[C@H]4CC[C@H](n6cc(NC(=O)c7cnn8ccc(N9C[C@H]%10C[C@@H]9CO%10)nc78)c(C(F)F)n6)CC4)C5)CC3)c21 (stereo partly drawn) [I-660]	> 200 nM	< 10 nM
Cn1c(=O)n(C2CCC(=O)NC2=O)c2cccc(N3CCN(CC4COC5(C4)CN(C[C@H]4CC[C@H](n6cc7cc(NC(=O)c8cccc(C(F)(F)F)n8)ccc7n6)CC4)C5)CC3)c21 (stereo partly drawn) [I-661]	> 200 nM	> 200 nM
